Experimental data published in patent US20180087023A1, “METHOD OF PRODUCING BIOPRODUCTS” (White Dog Labs, Inc., priority 2015, published 2018).

Key:
[1] = Single-stage extraction of 2% aqueous bioproduct solutions with extractant (Examples 1-9); type: physicochemical; conditions: for Raffinate Bioproduct conc. (%) / Extract Bioproduct conc. (%): 100 g of 2% aqueous solution mixed with 100 g extractant of 80% 1-butene + 20% DME; for Raffinate Bioproduct conc. (%): raffinate phase; for Extract Bioproduct conc. (%): pressure vessel, extract phase; for DC (bioproduct distribution coefficient): extract/raffinate, extractant 80% 1-butene + 20% DME, ambient temperature (Table 1); for Distribution coefficient, 100% DME: extractant 100% DME (Table 2)
Procedure: Extraction of various bioproducts with an extractant composed of 80% 1-butene and 20% dimethylether (DME) 100 grams (g) of aqueous solutions of various bioproducts were prepared. Bioproduct initial concentration was 2%. Each of these bioproduct aqueous solutions was extracted in a pressure vessel by mixing with 100 g of extractant composed of 80% 1-butene (the hydrocarbon) and 20% dimethylether (the oxygenated compound) at ambient temperature. The amount of formed extract and formed raffinate and the concentration (conc.) of the bioproduct in each were determined. Theses concentrations were used to calculate the bioproduct distribution coefficient (DC). Also determined was the concentration of DME in the raffinate. Table 2 compares the found distribution coefficients to those of extracting with an extractant composed of 100% DME.

[2] = Effect of DME/1-butene ratio in the extractant on n-butanol extraction (Example 10); type: physicochemical; conditions: after extracting 2% n-butanol solution, 1:1 w/w, room temperature
Procedure: Extractant to aqueous solution weight/weight ratio was 1 to 1. Distribution coefficients, extractant concentration in the raffinate and extraction yield (single stage extraction at the selected extractant/aqueous solution weight/weight ratio) were determined and are summarized in Table 3.

In the case of `COC` [DME, dimethylether, reference compound], the “Raffinate DME conc. (%)” value ([1]; DME in raffinate after extracting each 2% bioproduct solution with 80% 1-butene + 20% DME, ambient temperature) is reported as 4.5% and the “Wt % Extractant in Raffinate” value [2] is reported as 31.0%.
In the case of `O=C(O)CCCC(=O)O` [Glutaric Acid], the “Raffinate Bioproduct conc. (%)” value ([1]; ambient temperature) is reported as 1.37%, the “Extract Bioproduct conc. (%)” value ([1]; ambient temperature) is reported as 0.56% and the “DC (bioproduct distribution coefficient)” value [1] is reported as 0.43. For the same compound, the “Distribution coefficient, 100% DME” value [1] was 1.88.
For `O=C(O)CCC(=O)O` [Succinic Acid], the “Raffinate Bioproduct conc. (%)” value ([1]; ambient temperature) was 1.66%, the “Extract Bioproduct conc. (%)” value ([1]; ambient temperature) was 0.22% and the “DC (bioproduct distribution coefficient)” value [1] was 0.13. The “Distribution coefficient, 100% DME” value [1] was 1.01.
With `O=C1CCCO1` [Gamma Butyrolactone] the “Raffinate Bioproduct conc. (%)” value ([1]; ambient temperature) was 0.37%, the “Extract Bioproduct conc. (%)” value ([1]; ambient temperature) was 0.172% and the “DC (bioproduct distribution coefficient)” value [1] was 4.63. The “Distribution coefficient, 100% DME” value [1] was 3.14.
With `CCCC=O` [Butanal] the “Raffinate Bioproduct conc. (%)” value ([1]; ambient temperature) was 0.26%, the “Extract Bioproduct conc. (%)” value ([1]; ambient temperature) was 1.85% and the “DC (bioproduct distribution coefficient)” value [1] was 7.16. For the same compound, the “Distribution coefficient, 100% DME” value [1] was 5.11.
For `CCC(=O)O` [Propionic Acid], the “Raffinate Bioproduct conc. (%)” value ([1]; ambient temperature) was 0.92%, the “Extract Bioproduct conc. (%)” value ([1]; ambient temperature) was 1.09% and the “DC (bioproduct distribution coefficient)” value [1] was 1.18. The “Distribution coefficient, 100% DME” value [1] was 2.27.
In the case of `CCCC(=O)OC` [Methyl Butyrate], the “Raffinate Bioproduct conc. (%)” value ([1]; ambient temperature) is reported as 0.034%, the “Extract Bioproduct conc. (%)” value ([1]; ambient temperature) is reported as 2.12% and the “DC (bioproduct distribution coefficient)” value [1] is reported as 61.1. The “Distribution coefficient, 20% DME + 80% 1-Butene” value ([1]; extractant 20% DME + 80% 1-butene (Table 2)) was 61.14 and the “Distribution coefficient, 100% DME” value [1] was 20.73.
With `O=Cc1ccco1` [Furfural] the “Raffinate Bioproduct conc. (%)” value ([1]; ambient temperature) was 0.46%, the “Extract Bioproduct conc. (%)” value ([1]; ambient temperature) was 0.162% and the “DC (bioproduct distribution coefficient)” value [1] was 3.54. The “Distribution coefficient, 100% DME” value [1] was 3.79.
For `CCCC(C)=O` [2-Pentanone], the “Raffinate Bioproduct conc. (%)” value ([1]; ambient temperature) was 0.22%, the “Extract Bioproduct conc. (%)” value ([1]; ambient temperature) was 1.89% and the “DC (bioproduct distribution coefficient)” value [1] was 8.45. For the same compound, the “Distribution coefficient, 100% DME” value [1] was 5.82.
